The source of these data is ChEMBL document CHEMBL4613258, “Distribution of Bibenzyls, Prenyl Bibenzyls, Bis-bibenzyls, and Terpenoids in the Liverwort Genus Radula” (J Nat Prod, 2020).

Values after ≈ are worked out from the molar mass of the structure shown.

Test [1] in a line: Inhibition of calmodulin (unknown origin). Conditions: Homo sapiens.
A further test relates to RAW264.7. The test is described as follows: Inhibition of LPS-induced NO-production in mouse RAW264.7 cells at 4.5 to 20 uM incubated for 24 hrs by Griess reagent based assay relative to control. It counts as functional. A general note: Griess reagent forms a coloured azo dye with nitrite.
The subject of a further test is NCI-H1299. Nature of the test: Cytotoxicity against human NCI-H1299 cells. It counts as functional, cell-based.
Another test concerns Staphylococcus aureus. The test is described as follows: […] activity against Staphylococcus aureus. The test is classed as functional.
For test [2], the target named is Vasopressin V1a receptor (Homo sapiens) (UniProt P37288). The test is described as follows: Antagonist activity at vasopressin (unknown origin).
Test [3] concerns Trichostrongylus colubriformis. The test is described as follows: Antiparasitic activity against Trichostrongylus colubriformis assessed as inhibiton of parasite growth at 0.7 ug/ml relative to control. It counts as functional.
A further test relates to KB. Nature of the test: Cytotoxicity against human KB cells. The test is classed as functional. Conditions: read-out: ED50 (the source's name).
The subject of the next test is MRC5. The test is described as follows: Cytotoxicity against human MRC5 cells. The test is classed as functional, cell-based.
For another test, the system named is Candida albicans. Nature of the test: Antifungal activity against Candida albicans. It counts as functional.
In test [4] the test system is Trichophyton mentagrophytes. The test is described as follows: Antifungal activity against Trichophyton mentagrophytes. The test is classed as functional.
For test [5], the system named is Trichostrongylus colubriformis. Nature of the test: Antiparasitic activity against Trichostrongylus colubriformis. The test is classed as functional, organism-based.
A short description of test [6]: Antioxidant activity assessed as DPPH radical scavenging activity at 50 ug/ml relative to control. It counts as functional. For orientation: DPPH is a stable violet radical that fades when it is reduced.
A further test deals with Cyclooxygenase (Homo sapiens, UniProt P35354+P23219). The test is described as follows: Inhibition of COX (unknown origin). It counts as protein assay.
The subject of a further test is Macrophage. Nature of the test: Inhibition of superoxide anion radical release in guinea pig macrophages. The test is classed as functional, cell-based. Conditions: Cavia porcellus.
Test [7] in a line: Inhibition of DNA polymerase beta (unknown origin). Also noted: species or system Homo sapiens.

Sequence of Vasopressin V1a receptor (Homo sapiens) (P37288 whole entry, looked up): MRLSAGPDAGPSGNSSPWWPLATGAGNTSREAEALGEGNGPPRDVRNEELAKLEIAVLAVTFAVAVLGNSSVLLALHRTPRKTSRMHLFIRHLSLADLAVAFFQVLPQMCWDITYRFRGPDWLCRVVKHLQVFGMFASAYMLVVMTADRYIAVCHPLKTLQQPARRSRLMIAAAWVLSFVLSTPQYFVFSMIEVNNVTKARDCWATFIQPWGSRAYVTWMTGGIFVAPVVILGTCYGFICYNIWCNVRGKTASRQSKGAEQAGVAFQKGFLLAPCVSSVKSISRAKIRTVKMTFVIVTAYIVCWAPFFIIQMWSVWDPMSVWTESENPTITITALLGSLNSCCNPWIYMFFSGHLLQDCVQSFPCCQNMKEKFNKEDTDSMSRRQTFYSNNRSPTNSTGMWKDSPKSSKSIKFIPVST

In the case of `CC1=CCc2c(O)cc(CCc3ccccc3)cc2OC1`, the ID50 in test [1] was found to be 95 µg/mL (≈ 339 µM). For the same compound, in the test on RAW264.7, the “inhibition (INH)” value is listed as 50%.
In the case of `CC1=CCc2c(cc(CCc3ccc(O)cc3)c(C(=O)O)c2O)OC1`, the ID50 in test [1] turned out to be 18.5 µg/mL (≈ 54.4 µM).
As to `COC(=O)c1c(CCc2ccccc2)cc(O)c(CC=C(C)C)c1O`, in the test with NCI-H1299, half-maximal inhibition (IC50) was put at 5.1 µM.
Regarding `COc1cc(CCc2ccccc2)cc(O)c1CC=C(C)C`, the MIC with Staphylococcus aureus was determined as 3 µg/mL (≈ 10.1 µM). The ID50 in [2] turned out to be 27 µg/mL (≈ 91.1 µM).
Turning to `COc1ccc(CCc2cccc(OC)c2)cc1`, the inhibition at 0.7 µg/mL in [3] came to 30%.
For `CC(C)=CCC/C(C)=C/Cc1c(O)cc(O)cc1CCc1ccccc1`, in the test with Staphylococcus aureus, the MIC amounted to 20 µg/mL (≈ 57.1 µM). Besides, the ID50 in test [1] is 4 µg/mL (≈ 11.4 µM). Further, the “inhibition (INH)” value with RAW264.7 amounted to 50%.
As for `Oc1cccc(CCc2ccc(Oc3cc(CCc4cccc(O)c4)ccc3O)cc2)c1`, the EC50 in the test with KB worked out at 12.5 µg/mL (≈ 29.3 µM). This compound had an IC50 in the test on MRC5 of 7.46 µg/mL (≈ 17.5 µM).
In turn, `C=C(C)[C@H]1Cc2c(CCc3ccccc3)cc(O)c(O)c2O1` came in with an ID50 in test [1] of 2 µg/mL (≈ 6.75 µM).
`CC(C)=CCc1c(CCc2ccccc2)cc(O)c(O)c1O` had an ID50 in test [1] of 3.5 µg/mL (≈ 11.7 µM).
As to `CC1=CCc2c(O)cc(CCc3ccccc3O)cc2OC1`, in the test on RAW264.7, the “inhibition (INH)” value turned out to be 50%.
On to `COc1cccc(CCc2ccc(O)cc2)c1`, for which the MIC against Candida albicans was determined as 125 µg/mL (≈ 548 µM); in test [4], 62.5 µg/mL (≈ 274 µM). For the same compound, the IC50 in test [5] worked out at 0.13 µg/mL (≈ 0.569 µM).
Compound `CC(C)=CCc1c(O)cc(O)cc1CCc1ccccc1` had an ID50 in [1] of 4.9 µg/mL (≈ 17.4 µM). In addition, the Activity in [6] came to 28%.
Take `C[C@]12COc3cc(CCc4ccccc4)c(C(=O)O)c(O)c3[C@H]1C2`: the IC50 was 39.7 µM at Cyclooxygenase and 6 µg/mL (≈ 18.5 µM) in the test on Macrophage. Further, in the test with RAW264.7, the “inhibition (INH)” value was determined as 50%.
In the case of `Oc1cccc(CCc2ccc(Oc3cc(CCc4cccc(O)c4)cc(O)c3O)cc2)c1` [PERROTETTIN F], the EC50 with KB worked out at 20 µg/mL (≈ 45.2 µM). Also, in [7], the IC50 is 97.5 to 114 µM.

By IC50 is commonly meant the concentration at which inhibition is half-maximal. A higher IC50 goes with weaker potency in that assay. What is called MIC is the lowest concentration that inhibits growth of the organism. The low end stands for a more susceptible organism, the high end for a less susceptible organism. What is called inhibition is the change of the read-out against control, counted positive when it falls.
